From ChEMBL document CHEMBL3621069 (Bioorg Med Chem Lett, 2015)
Converted amounts (≈) assume the structure as drawn.

Legend:
[1] = biological target: T1, Tyrosine-protein kinase SYK (Homo sapiens, UniProt P43405); assay: Inhibition of purified full-length human SYK pre-incubated for 30 mins at room temperature before Ulight-TK peptide substrate addition and measured 1 hr after substrate addition by cell free kinase assay
[2] = Clearance in Sprague-Dawley rat at 10 mg/kg, po; type: ADME, organism-based; details: in vivo
[3] = system: Rattus norvegicus; assay: Volume of distribution at steady state in Sprague-Dawley rat at 10 mg/kg, po; type: ADME, organism-based; details: in vivo
[4] = Terminal half life in Sprague-Dawley rat at 10 mg/kg, po; type: ADME, organism-based; details: in vivo, read-out: beta t1/2 (converted)
[5] = Oral bioavailability in Sprague-Dawley rat at 10 mg/kg; type: ADME, organism-based; details: in vivo
[6] = AUClast in Sprague-Dawley rat at 10 mg/kg; type: ADME, organism-based; parameters: dose 10 mg/kg, time 0 - last; details: in vivo
[7] = biological target: T2, Tyrosine-protein kinase ZAP-70 (Homo sapiens, UniProt P43403); assay: Inhibition of purified full-length human ZAP70 pre-incubated for 30 mins at room temperature before UlighTM-PolyGT peptide substrate addition and measured 1 hr after substrate addition by cell free kinase assay
T2 sequence (P43403 whole entry): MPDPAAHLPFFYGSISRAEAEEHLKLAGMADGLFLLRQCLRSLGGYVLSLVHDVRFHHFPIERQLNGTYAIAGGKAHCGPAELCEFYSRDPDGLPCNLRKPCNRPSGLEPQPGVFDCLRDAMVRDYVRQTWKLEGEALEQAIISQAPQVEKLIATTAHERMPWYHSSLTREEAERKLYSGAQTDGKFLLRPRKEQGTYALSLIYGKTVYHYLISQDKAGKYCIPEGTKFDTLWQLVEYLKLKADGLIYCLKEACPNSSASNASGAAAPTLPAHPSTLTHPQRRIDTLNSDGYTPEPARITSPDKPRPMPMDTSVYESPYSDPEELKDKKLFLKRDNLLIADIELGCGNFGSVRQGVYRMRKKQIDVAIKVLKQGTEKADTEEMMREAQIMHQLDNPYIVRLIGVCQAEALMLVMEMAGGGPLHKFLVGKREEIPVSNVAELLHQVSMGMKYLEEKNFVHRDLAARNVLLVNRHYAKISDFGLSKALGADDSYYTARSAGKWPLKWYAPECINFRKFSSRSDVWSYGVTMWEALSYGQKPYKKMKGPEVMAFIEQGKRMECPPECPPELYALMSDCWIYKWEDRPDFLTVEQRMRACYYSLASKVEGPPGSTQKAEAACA

[8] = biological target: T3, Tyrosine-protein kinase JAK3 (Homo sapiens, UniProt P52333); assay: Inhibition of JAK3 (unknown origin) pre-incubated for 30 mins at room temperature before substrate addition and measured 1 hr after substrate addition by cell free kinase assay
T3 sequence (P52333 whole entry): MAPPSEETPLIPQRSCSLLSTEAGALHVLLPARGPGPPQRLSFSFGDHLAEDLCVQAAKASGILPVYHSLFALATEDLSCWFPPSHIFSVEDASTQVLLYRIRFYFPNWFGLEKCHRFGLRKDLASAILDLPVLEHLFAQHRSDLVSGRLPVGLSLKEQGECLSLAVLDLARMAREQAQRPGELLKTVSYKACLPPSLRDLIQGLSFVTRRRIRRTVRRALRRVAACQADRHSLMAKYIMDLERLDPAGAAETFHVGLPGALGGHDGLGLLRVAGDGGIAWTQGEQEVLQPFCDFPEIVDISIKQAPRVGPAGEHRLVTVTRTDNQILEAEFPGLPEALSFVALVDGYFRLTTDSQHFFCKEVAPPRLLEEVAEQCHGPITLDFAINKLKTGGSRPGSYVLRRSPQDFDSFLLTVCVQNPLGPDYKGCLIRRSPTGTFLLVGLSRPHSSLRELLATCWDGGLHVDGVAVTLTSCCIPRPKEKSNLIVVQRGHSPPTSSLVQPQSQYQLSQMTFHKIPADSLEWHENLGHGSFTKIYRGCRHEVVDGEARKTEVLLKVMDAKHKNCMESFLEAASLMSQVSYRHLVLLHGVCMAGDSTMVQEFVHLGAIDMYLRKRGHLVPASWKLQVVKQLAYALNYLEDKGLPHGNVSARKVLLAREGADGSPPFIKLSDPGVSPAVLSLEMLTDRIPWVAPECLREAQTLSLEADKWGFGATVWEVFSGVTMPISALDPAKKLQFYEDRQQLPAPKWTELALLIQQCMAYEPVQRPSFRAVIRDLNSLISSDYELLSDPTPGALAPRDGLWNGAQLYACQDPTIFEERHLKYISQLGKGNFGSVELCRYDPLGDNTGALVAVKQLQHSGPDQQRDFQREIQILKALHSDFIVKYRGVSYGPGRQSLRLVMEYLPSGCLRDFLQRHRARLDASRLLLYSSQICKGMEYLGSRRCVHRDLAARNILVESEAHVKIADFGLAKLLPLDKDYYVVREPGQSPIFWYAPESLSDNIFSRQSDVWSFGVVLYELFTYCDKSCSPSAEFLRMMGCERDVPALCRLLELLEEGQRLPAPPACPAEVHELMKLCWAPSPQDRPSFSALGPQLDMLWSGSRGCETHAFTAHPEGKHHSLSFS

[9] = biological target: Proto-oncogene tyrosine-protein kinase receptor Ret (Homo sapiens, UniProt P07949); assay: Inhibition of human RET pre-incubated for 30 mins at room temperature before substrate addition and measured 1 hr after substrate addition by cell free kinase assay
Sequence of Proto-oncogene tyrosine-protein kinase receptor Ret (P07949 whole entry): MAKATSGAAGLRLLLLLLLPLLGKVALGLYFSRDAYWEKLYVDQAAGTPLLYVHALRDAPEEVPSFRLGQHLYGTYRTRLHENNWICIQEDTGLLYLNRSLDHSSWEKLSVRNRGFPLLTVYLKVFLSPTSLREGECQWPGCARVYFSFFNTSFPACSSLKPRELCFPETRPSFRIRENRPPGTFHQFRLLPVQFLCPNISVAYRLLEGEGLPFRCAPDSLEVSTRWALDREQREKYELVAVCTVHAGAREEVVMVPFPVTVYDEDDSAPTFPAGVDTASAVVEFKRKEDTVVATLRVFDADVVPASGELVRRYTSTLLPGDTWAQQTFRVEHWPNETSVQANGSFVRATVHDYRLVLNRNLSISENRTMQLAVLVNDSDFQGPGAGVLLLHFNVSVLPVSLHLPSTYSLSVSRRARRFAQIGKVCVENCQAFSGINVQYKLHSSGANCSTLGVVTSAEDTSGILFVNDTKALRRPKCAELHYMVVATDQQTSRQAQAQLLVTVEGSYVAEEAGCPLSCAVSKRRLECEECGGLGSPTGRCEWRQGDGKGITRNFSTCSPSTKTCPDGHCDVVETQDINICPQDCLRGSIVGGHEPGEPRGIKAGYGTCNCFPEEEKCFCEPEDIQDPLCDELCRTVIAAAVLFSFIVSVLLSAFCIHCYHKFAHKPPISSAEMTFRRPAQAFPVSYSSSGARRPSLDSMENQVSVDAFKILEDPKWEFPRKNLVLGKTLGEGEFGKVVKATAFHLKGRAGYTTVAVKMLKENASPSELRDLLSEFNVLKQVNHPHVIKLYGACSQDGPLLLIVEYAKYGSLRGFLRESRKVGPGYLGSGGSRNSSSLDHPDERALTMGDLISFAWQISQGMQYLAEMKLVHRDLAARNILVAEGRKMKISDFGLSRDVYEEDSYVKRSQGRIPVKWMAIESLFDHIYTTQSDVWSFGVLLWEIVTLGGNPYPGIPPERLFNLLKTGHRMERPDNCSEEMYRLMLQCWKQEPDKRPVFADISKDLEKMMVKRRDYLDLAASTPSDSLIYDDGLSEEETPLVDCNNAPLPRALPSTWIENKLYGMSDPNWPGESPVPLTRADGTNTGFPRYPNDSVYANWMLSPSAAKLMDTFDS

[10] = Stability in human liver microsomes; type: ADME; details: read-out: Stability
[11] = Apparent permeability from apical to basolateral side in human Caco2 cells; type: ADME, cell-based; details: Caco-2
[12] = Apparent permeability from basolateral to apical side in human Caco2 cells; type: ADME, cell-based; details: Caco-2
[13] = Inhibition of CYP450 (unknown origin); type: ADME, Homo sapiens
[14] = system: Plasma; assay: Unbound fraction in human plasma; type: ADME, cell-free
[15] = Kinetic solubility of the compound; type: physicochemical; details: read-out: Kinetic_solubility
[16] = Apparent permeability in human Caco2 cells; type: ADME, cell-based; details: Caco-2
[17] = biological target: Cytochrome P450 3A4 (Homo sapiens, UniProt P08684); assay: Inhibition of CYP3A4 (unknown origin); type: ADME
Sequence of Cytochrome P450 3A4 (P08684 whole entry): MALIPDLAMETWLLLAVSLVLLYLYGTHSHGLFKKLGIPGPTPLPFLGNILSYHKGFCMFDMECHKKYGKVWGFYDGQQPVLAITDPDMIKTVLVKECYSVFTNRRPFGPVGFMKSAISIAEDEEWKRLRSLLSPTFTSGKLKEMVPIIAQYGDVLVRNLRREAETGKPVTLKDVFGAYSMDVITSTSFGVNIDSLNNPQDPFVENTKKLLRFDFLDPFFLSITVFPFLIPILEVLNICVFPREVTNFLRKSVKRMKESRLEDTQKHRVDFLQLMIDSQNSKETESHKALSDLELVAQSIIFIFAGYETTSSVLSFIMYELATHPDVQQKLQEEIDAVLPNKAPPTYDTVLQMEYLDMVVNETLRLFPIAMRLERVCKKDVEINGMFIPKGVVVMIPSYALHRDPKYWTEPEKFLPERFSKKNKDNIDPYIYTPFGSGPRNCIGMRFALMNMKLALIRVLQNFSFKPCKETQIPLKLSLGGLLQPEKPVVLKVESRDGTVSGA

[18] = biological target: T1, Tyrosine-protein kinase SYK; assay: Inhibition of SYK-mediated TNFalpha production in human IgG-stimulated human THP1 cells incubated for 18 hrs by ELISA method; type: cell-based, THP-1

## CCn1ccc2cc(Nc3nccc(-n4cc(CN5CC(O)C5)c(C)n4)n3)ccc21
[1]
  IC50: 22.8 nM

## Cc1nn(-c2ccnc(Nc3ccc4c(ccn4C)c3)n2)cc1CN1CC(O)C1
[1]
  IC50: 36.6 nM

## COc1c(C)cc(Nc2nccc(-n3cc(C)c(CN4CC(O)C4)c3)n2)cc1C
[1]
  IC50: 5.7 nM
[2]
  CL/F: 70 mL/min/kg
[3]
  Vdss: 5.6 L/kg
[4]
  half-life: 1.2 h
[5]
  bioavailability: 7.8%
[6]
  AUC(0-t): 550 ng·h/mL

## Cc1nn(-c2nc(Nc3ccc4c(c3)c(C#N)nn4C)ncc2F)cc1CN1CC(O)C1
[1]
  IC50: 5990 nM

## Cc1nn(-c2ccnc(Nc3ccc4c(c3)c(Cl)c(C)n4C)n2)cc1CN1CC[C@@H](O)C1
[7]
  IC50: 73400 nM
[8]
  IC50: 478 nM
[9]
  IC50: 9590 nM
[10]
  half-life: > 1 h
[11]
  Papp A→B: 6.2 ×10⁻⁶ cm/s
[12]
  Papp B→A: 7.3 ×10⁻⁶ cm/s
[13]
  IC50: > 10000 nM
[14]
  Fu: < 0.4%

## Cc1cc(C)cc(Nc2nccc(-n3cc(C)c(CN4CC[C@@H](N)C4)c3)n2)c1
[1]
  IC50: 13.2 nM

## Cc1cc(C)cc(Nc2nccc(-n3cc(C)c(CN(C)C)c3)n2)c1
[1]
  IC50: 6.2 nM

## Cc1cc(C)cc(Nc2nccc(-n3cc(C)c(CN4CC(O)C4)c3)n2)c1
[1]
  IC50: 5.4 nM

## Cc1cc(C)cc(Nc2nccc(-n3cc(C)c(CN4CCC(F)(F)CC4)c3)n2)c1
[1]
  IC50: 307 nM

## Cc1cc(C)cc(Nc2nccc(-n3cc(CN4CC(O)C4)c(C4CC4)c3)n2)c1
[1]
  IC50: 1.9 nM

## Cc1cn(-c2ccnc(Nc3cc(C)c(OCC(=O)N4CCCC4)c(C)c3)n2)cc1CN1CC(O)C1
[1]
  IC50: 7.3 nM

## Cc1cc(C)cc(Nc2nccc(-n3cc(CN4CCC(O)CC4)c(C)n3)n2)c1
[1]
  IC50: 39.1 nM

## Cc1cc(C)cc(Nc2nccc(-n3cc(C)c(CN4CC[C@H](C(=O)O)C4)c3)n2)c1
[1]
  IC50: 17.8 nM

## Cc1cc(C)cc(Nc2nccc(-n3cc(C)c(CN4CC[C@@H](O)C4)c3)n2)c1
[1]
  IC50: 2.3 nM
[15]
  solubility kinetic: 70 µM (≈ 26.4 µg/mL)
[16]
  Papp: 2 ×10⁻⁶ cm/s
[17]
  IC50: 5100 nM
[18]
  IC50: 77 nM
[8]
  IC50: 349 nM
[2]
  CL/F: 43 mL/min/kg
[3]
  Vdss: 4.3 L/kg
[4]
  half-life: 2.6 h
[5]
  bioavailability: 7.6%
[6]
  AUC(0-t): 6240 ng·h/mL

## Cc1nn(-c2nc(Nc3ccc4c(cnn4C)c3)ncc2F)cc1CN1CC(O)C1
[1]
  IC50: 326 nM

## Cc1cc(C)cc(Nc2nccc(-n3cc(CN4CC[C@@H](O)C4)c(C)n3)n2)c1
[1]
  IC50: 3.5 nM

## Cc1cc(C)cc(Nc2nccc(-n3cc(CN4CC(O)C4)c(C)n3)n2)c1
[1]
  IC50: 7.3 nM

## Cc1cn(-c2ccnc(Nc3cc(C)c(OCC(=O)N4CCCC4)c(C)c3)n2)cc1CN1CC[C@@H](O)C1
[1]
  IC50: 14.4 nM

## COc1cc(Nc2nccc(-n3cc(C)c(CN4CC(O)C4)c3)n2)cc(OC)c1OC
[1]
  IC50: 38 nM

## Cc1nn(-c2ccnc(Nc3ccc4c(cnn4C4CC4)c3)n2)cc1CN1CC(O)C1
[1]
  IC50: 8 nM

## Cc1nn(-c2ccnc(Nc3ccccc3)n2)cc1CN1CC[C@@H](O)C1
[1]
  IC50: 871 nM

## Cc1cn(-c2ccnc(Nc3cc(C)c(Oc4ccccc4)c(C)c3)n2)cc1CN1CC(O)C1
[1]
  IC50: 144 nM

## COc1cc(Nc2nccc(-n3cc(C)c(CN4CC(O)C4)c3)n2)cc(OC)c1OCC(=O)N1CCCC1
[1]
  IC50: 61.4 nM

## Cc1nn(-c2ccnc(Nc3ccc4c(c3)CCN4C)n2)cc1CN1CC(O)C1
[1]
  IC50: 20.4 nM

## Cc1cn(-c2ccnc(Nc3cc(C)c(OS(C)(=O)=O)c(C)c3)n2)cc1CN1CC(O)C1
[1]
  IC50: 6.3 nM

## Cc1cn(-c2ccnc(Nc3cc(C)c(OS(C)(=O)=O)c(C)c3)n2)cc1CN1CC[C@@H](O)C1
[1]
  IC50: 7.9 nM

## COc1cc(Nc2nccc(-n3cc(C)c(CN4CC[C@@H](O)C4)c3)n2)cc(OC)c1OCC(=O)N1CCCC1
[1]
  IC50: 101 nM

## COc1cc(Nc2nccc(-n3cc(C)c(CN(C)C)c3)n2)cc(OC)c1OC
[1]
  IC50: 71.8 nM

## Cc1cn(-c2ccnc(Nc3cc(C)c(OCCO)c(C)c3)n2)cc1CN1CC(O)C1
[1]
  IC50: 5 nM

## CCn1ccc2cc(Nc3nccc(-n4cc(CN5CC(O)C5)c(C5CC5)n4)n3)ccc21
[1]
  IC50: 9.2 nM

## Cc1cn(-c2ccnc(Nc3cc(C)c(OCCO)c(C)c3)n2)cc1CN1CC[C@@H](O)C1
[1]
  IC50: 17.3 nM
[15]
  solubility kinetic: 120 µM (≈ 52.5 µg/mL)
[16]
  Papp: 10.3 ×10⁻⁶ cm/s
[17]
  IC50: > 10000 nM

## Cc1cn(-c2ccnc(Nc3cc(C)c(Oc4ccccc4)c(C)c3)n2)cc1CN1CC[C@@H](O)C1
[1]
  IC50: 377 nM

## Cc1cc(C)cc(Nc2nccc(-n3cc(CN4CC[C@@H](O)C4)c(C4CC4)c3)n2)c1
[1]
  IC50: 3.7 nM

## Cc1cn(-c2ccnc(Nc3cc(C)c(OCCN4CCCC4)c(C)c3)n2)cc1CN1CC(O)C1
[1]
  IC50: 11.5 nM

## Cc1cc(Nc2nccc(-n3cc(CN4CC(O)C4)c(C)n3)n2)cc(C)c1OCCN1CCCC1
[1]
  IC50: 8.9 nM
